Laboratory results from patent US20040018150A1, “Prodrugs of phosphonate nucleotide analogues and methods for selecting and making same” (priority 2003, published 2004).
Read-outs that look alike come from different tables or passages of the source.

How the values were obtained:
MT-2 cells [1] = experiment: Cytotoxicity in MT-2 cells; conditions: cell culture
HIV-1 [2] = test system: HIV-1
MT-2 cells [3] = test system: MT-2 cells
HIV-1 [4] = conditions: anti-HIV-1; from Mulato and Cherrington, Antiviral Research 36, 91 (1997); cited from earlier work
HIV-1 [5] = experiment: microbe, parasite or virus in culture
[6] = for PMPA AUC in PBMC Mean / PMPA AUC in Plasma Mean: dog, in vivo, po; for PBMC/Plasma Exposure Ratio / Prodrug in Plasma: dogs, oral, 10 mg-equivalent of PMPA/kg
Experimental: Formulations. The prodrugs were formulated as solutions in 50 mM citric acid within 0.5 hour prior to dose. All compounds used in the studies were synthesized by Gilead Sciences. The following lots were used:
Dose Administration and Sample Collection. The in-life phase of this study was conducted in accordance with the recommendations of the “Guide for the Care and Use of Laboratory Animals” (National Institutes of Health publication 86-23) and was approved by an Institutional Animal Care and Use Committee. Fasted male beagle dogs (10±2 kg) were used for the studies. Each drug was administered as a single dose by oral gavage (1.5-2 ml/kg). The dose was 10 mg-equivalent of PMPA/kg. For PBMCs, blood samples were collected at 0 (pre-dose), 2,8, and 24 h post-dose. […] Blood (1.0 ml) was processed immediately for plasma by centrifugation at 2,000 rpm for 10 min. Plasma samples were frozen and maintained at […] until analyzed.
Peripheral Blood Mononuclear Cell (PBMC) preparation. Whole blood (8 ml) drawn at specified time points was mixed in equal proportion with phosphate buffered saline (PBS), layered onto 15 ml of Ficoll-Paque solution (Pharmacia Biotech,) and centrifuged at 400×g for 40 min. PBMC layer was removed and washed once with PBS. Formed PMBC pellet was reconstituted in 0.5 ml of PBS, cells were resuspended, counted using hemocytometer and maintained at […] until analyzed. The number of cells multiplied by the mean single-cell volume was used in calculation of intracellular concentrations. […] Agents Chemother.
Determination of PMPA and Prodrugs in plasma and PBMCs. […] Derivatized samples were then evaporated to dryness and reconstituted in 100 μl of water for HPLC analysis.
Before intracellular PMPA could be determined by HPLC, the large amounts of adenine related ribonucleotides present in the PBMC extracts had to be removed by selective oxidation.
The HPLC system was comprised of a P4000 solvent delivery system with AS3000 autoinjector and F2000 fluorescence detector (Tlermo Separation, San Jose, Calif.). […] The mobile phases used were: A, 5% acetonitrile in 25 mM potassium phosphate buffer with 5 mM tetrabutyl ammonium bromide (TBABr), pH 6.0; B, 60% acetonitrile in 25 mM potassium phosphate buffer with 5 mM TBABr, pH 6.0. The flow rate was 2 ml/min and the column temperature was maintained at 35° C. by a column oven. The gradient profile was 90% A/10% B for 10 min for PMPA and 65%A/35%B for 10 min for the prodrug. […] Data was acquired and stored by a laboratory data acquisition system (PeakPro, Beckman, Allendale, N.J.).
Pharmacokinetic Calculations. […] The AUC values were calculated using the trapezoidal rule.

[7] = test system: PLCE (porcine liver carboxyesterase); experiment: in vitro; type: in vitro ADME; conditions: 37° C., PBS pH 7.4
Experimental: (§1) The in vitro metabolism and stability of separated diastereomers were determined in PLCE, MT-2 extract and human plasma. A biological sample listed below, 80 μL, was transferred into a screw-capped centrifuge tube and incubated at 37° C. for 5 min. A solution containing 0.2 mg/mL of the test compound in a suitable buffer, 20 μL, was added to the biological sample and mixed. The reaction mixture, 20 μL, was immediately sampled and mixed with 60 μL of methanol containing 0.015 mg/mL of 2-hydroxymethylnaphthalene as an internal standard for HPLC analysis. The sample was taken as the time-zero sample. Then, at specific time points, the reaction mixture, 20 μL, was sampled and mixed with 60 μL of methanol containing the internal standard. The mixture thus obtained was centrifuged at 15,000 G for 5 min and the supernatant was analyzed with HPLC under the conditions described below.
(1) PLCE (porcine liver carboxyesterase from Sigma, 160 u/mg protein, 21 mg protein/mL) diluted 20 fold with PBS (phosphated-buffered saline).
In the study for PLCE, the test compound was dissolved in PBS. PBS (phosphate-buffered saline, Sigma) contains 0.01 M phosphate, 0.0027 M potassium chloride, and 0.137 M sodium chloride. pH 7.4 at 37° C.
(§2) The HPLC analysis was carried out under the following conditions.

[8] = Stability / hydrolysis in MT-2 cell extract; type: in vitro ADME; conditions: 37° C., HEPES buffer pH 7.4
Experimental: as §1
(2) MT-2 cell extract was prepared from MT-2 cells according to the published procedure [A. Pompon, I. Lefebvre, J.-L. Imbach, S. Kahn, and D. Farquhar, “Antiviral Chemistry & Chemotherapy”, 5:91-98 (1994)] except for using HEPES buffer described below as the medium.
In the study for MT-2 cell extracts, the test compound was dissolved in HEPES buffer. HEPES buffer contains 0.010 M HEPES, 0.05 M potassium chloride, 0.005 M magnesium chloride, and 0.005 M dl-dithiothreitol. pH 7.4 at 37° C.
as §2

[9] = Stability in human plasma; type: in vitro ADME; conditions: 37° C., TBS pH 7.5
Experimental: as §1
(3) Human plasma (pooled normal human plasma from George King Biomedical Systems, Inc.)
In the study for human plasma, the test compound was dissolved in TBS. TBS (tris-buffered saline, Sigma) contains 0.05 M Tris, 0.0027 M potassium chloride, and 0.138 M sodium chloride. pH 7.5 at 37° C.
as §2

[10] = Incubation of radiolabeled PMPA prodrugs or PMPA in human whole blood; metabolites in plasma, PBMCs and RBCs; type: in vitro ADME; conditions: human, 1 h
Experimental: After 1 hour, plasma, red blood cells (RBCs) and peripheral blood mononuclear cells (PBMCs) were isolated and analyzed by HPLC with radiometric detection.

in vitro = conditions: human
[11] = activity of diastereomer A versus B
[12] = cell culture anti-HIV-1 activity, separated diastereomers and 1:1 mixtures
[13] = Human immunodeficiency virus 1, MT2

CCOC(=O)[C@H](C)N[P@@](=O)(CO[C@H](C)Cn1cnc2c(N)ncnc21)Oc1ccccc1 (mixture of isomers) [Ala-ethyl, Phenyl PMPA, Ethyl L-Alanyl Amidate]
CC50 (MT-2 cells [1]): 60 µM | Fold change (HIV-1 [2]; IC50 relative to PMPA): 250× | A/B activity (HIV-1 [2]; [11]): 10× | IC50 (HIV-1 [2]; [12]): 0.02 µM

COC(=O)[C@H](C)NP(=O)(CO[C@H](C)Cn1cnc2c(N)ncnc21)Oc1ccccc1 (mixture of isomers) [Ala-methylester]
CC50 (MT-2 cells [3]): 80 µM | Fold change (HIV-1 [2]; IC50 relative to PMPA): 200× | A/B activity (HIV-1 [2]; [11]): 20× | IC50 (HIV-1 [2]; [12]): 0.025 µM

COC(=O)C(C)NP(=O)(COC(C)Cn1cnc2c(N)ncnc21)Oc1ccccc1 (single isomer, unassigned) [GS-6957a]
Fold change (HIV-1 [2]): 670× | IC50 (HIV-1 [2]): 0.0075 µM

COC(=O)[C@H](C)NP(=O)(CO[C@H](C)Cn1cnc2c(N)ncnc21)Oc1ccccc1 (single isomer, unassigned) [GS-6957b]
Fold change (HIV-1 [2]): 33× | IC50 (HIV-1 [2]): 0.15 µM

COC(=O)C(Cc1ccccc1)NP(=O)(COC(C)Cn1cnc2c(N)ncnc21)Oc1ccccc1 (single isomer, unassigned) [GS-7003a]
Fold change (HIV-1 [2]): 500× | IC50 (HIV-1 [2]): 0.01 µM

COC(=O)C(Cc1ccccc1)NP(=O)(COC(C)Cn1cnc2c(N)ncnc21)Oc1ccccc1 (single isomer, unassigned) [GS-7003b]
Fold change (HIV-1 [2]): 50× | IC50 (HIV-1 [2]): 0.1 µM

CCOC(=O)CNP(=O)(CO[C@H](C)Cn1cnc2c(N)ncnc21)Oc1ccccc1 (single isomer, unassigned) [GS-7335]
Fold change (HIV-1 [2]): 5× | IC50 (HIV-1 [2]): 1 µM

CCOC(=O)[C@H](CC)NP(=O)(CO[C@H](C)Cn1cnc2c(N)ncnc21)Oc1ccccc1 (stereo partly drawn) [ABA-ethyl]
CC50 (MT-2 cells [1]): > 100 µM | A/B activity (HIV-1 [2]): 7.5× | Fold change (HIV-1 [2]): 625× | IC50 (HIV-1 [2]): 0.008 µM

Cc1cn([C@H]2C[C@H](N=[N+]=[N-])[C@@H](CO)O2)c(=O)[nH]c1=O [AZT]
IC50 (HIV-1 [4]): 0.17 ± 0.08 µM

Nc1ncnc2c1ncn2CCOCP(=O)(O)O [Adefovir (PMEA), 9-[2-(phosphonomethoxy)ethyl]adenine]
IC50 (HIV-1 [4]): 13.4 ± 4.2 µM

CC(C)OC(=O)[C@H](C)NP(=O)(CO[C@H](C)Cn1cnc2c(N)ncnc21)Oc1ccccc1 (stereo partly drawn) [Ala-isopropyl]
IC50 (HIV-1 [5]; [13]): 0.01 µM | A/B activity (HIV-1 [2]; [11]): 12×

Nc1ccn([C@@H]2CS[C@H](CO)O2)c(=O)n1 [Compound 3TC]
IC50 (HIV-1 [4]): 1.8 ± 0.25 µM

CCOC(=O)CNP(=O)(CO[C@H](C)Cn1cnc2c(N)ncnc21)Oc1ccccc1 (stereo partly drawn) [GS-7119]
CC50 (MT-2 cells [1]): > 100 µM | Fold change (HIV-1 [2]): 100× | IC50 (HIV-1 [2]): 0.05 µM | PMPA AUC in PBMC Mean [6]: 530 | PMPA AUC in Plasma Mean [6]: 6.11 | PBMC/Plasma Exposure Ratio [6]: 87 | Prodrug in Plasma [6]: YES

CCOC(=O)C(CC)NP(=O)(COC(C)Cn1cnc2c(N)ncnc21)Oc1ccccc1 (stereo not drawn) [GS-7342]
PLCE hydrolysis product [7]: Met. X | MT-2 extract hydrolysis product [8]: Met. X & PMPA | IC50 (HIV-1 [2]): 0.004 µM | Fold change (HIV-1 [2]; IC50 relative to PMPA): 1,250× | IC50 (HIV-1 [2]; read-out: HIV IC50): 0.004 µM | Human Plasma Stability (HP) product [9]: Met. Y | Human Plasma Stability (HP) t1/2 [9]: 103 | PMPA AUC in PBMC Mean [6]: 1060 | PMPA AUC in Plasma Mean [6]: 4.6 | PBMC/Plasma Exposure Ratio [6]: 230 | Prodrug in Plasma [6]: YES

Cc1c(O)cccc1C(=O)N[C@@H](CSc1ccccc1)[C@H](O)CN1C[C@H]2CCCC[C@H]2C[C@H]1C(=O)NC(C)(C)C [Nelfinavir]
IC50 (HIV-1 [4]): 0.006 ± 0.002 µM

C[C@H](Cn1cnc2c(N)ncnc21)OCP(=O)(O)O [PMPA, 9-[2-(phosphonomethoxy)propyl]adenine]
IC50 (HIV-1 [5]; [13]): 5 µM | IC50 (HIV-1 [5]; Human immunodeficiency virus 1, MT2, read-out: HIV-1 Activity IC50): 5 µM | Metabolites (% of Total Peak Area): PMPApp [10]: 16% | Fold change (HIV-1 [2]): 1× | IC50 (HIV-1 [4]): 6.3 ± 3.3 µM | CC50 (in vitro): 6000 µM

COC(=O)[C@H](Cc1ccccc1)NP(=O)(CO[C@H](C)Cn1cnc2c(N)ncnc21)Oc1ccccc1 (stereo partly drawn) [Phe-methylester]
CC50 (MT-2 cells [1]): 60 µM | A/B activity (HIV-1 [2]): 10× | Fold change (HIV-1 [2]): 170× | IC50 (HIV-1 [2]): 0.03 µM

Cc1cn([C@H]2C=C[C@@H](CO)O2)c(=O)[nH]c1=O [d4T]
IC50 (HIV-1 [4]): 8 ± 2.5 µM
